Measured values as given in ChEMBL document CHEMBL1201862, “PubChem BioAssay data set” (2004).
Calls of active or inactive are those of the source.

Key:
[1] = Luminescence Cell-Based Dose Confirmation HTS to Identify Inhibitors of Platelet Dense Granule Release. [Related pubchem assays: 1663 (Primary HTS), 1678 (Summary of Project)]; format: functional
[2] = viability loss in HEK293 cells – cell-based, plate reader, cherry-picked samples, cytotoxicity control, dose response (AID 743446); format: functional
[3] = Luminescence Cell-Based Dose Response HTS to Identify Inhibitors of 5'UTR Stem-Loop Driven Prion Protein mRNA Translation in H4 Neuroglioblastoma Cells. [Related pubchem assays: 1827 (Project Summary), 1813 (Primary HTS)]; format: functional
[4] = molecular target: Luciferin 4-monooxygenase (Photinus pyralis, UniProt P08659); experiment: inhibition of purified Photinus pyralis luciferase – biochemical, luminescence, dose response (AID 1891)
Sequence of Luciferin 4-monooxygenase (P08659 whole entry): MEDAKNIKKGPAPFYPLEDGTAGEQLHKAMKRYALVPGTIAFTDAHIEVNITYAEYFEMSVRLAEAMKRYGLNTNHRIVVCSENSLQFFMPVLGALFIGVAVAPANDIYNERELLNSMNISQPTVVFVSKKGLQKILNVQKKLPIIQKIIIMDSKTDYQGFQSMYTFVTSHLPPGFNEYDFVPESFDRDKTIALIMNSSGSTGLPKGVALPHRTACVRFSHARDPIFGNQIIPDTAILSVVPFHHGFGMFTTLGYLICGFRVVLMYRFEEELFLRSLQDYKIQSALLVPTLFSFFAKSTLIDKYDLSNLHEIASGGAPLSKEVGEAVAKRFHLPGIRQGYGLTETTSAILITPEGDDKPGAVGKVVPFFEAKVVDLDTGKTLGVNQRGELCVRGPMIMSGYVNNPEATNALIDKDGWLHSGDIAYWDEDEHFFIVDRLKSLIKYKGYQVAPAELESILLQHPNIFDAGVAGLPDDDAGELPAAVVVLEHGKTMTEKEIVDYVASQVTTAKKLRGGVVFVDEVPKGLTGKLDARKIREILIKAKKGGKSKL

[5] = blockers of bursicon-stimulated LGR2 cAMP reporter – cell-based, HEK293, CRE-luciferase reporter, cherry pick, set 2, dose response (AID 743343); format: functional;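 further: transfected cells were stimulated with diluted bursicon conditioned medium after compound addition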
[6] = alpha-synuclein stem-loop luciferase translation blockers – H4 neuroglioma cells, luminescence, confirmation (AID 1988); format: functional, cell-based
[7] = Luminescence-based counterscreen assay for KLF5 inhibitors: dose response cell-based high throughput screening assay to identify cytotoxic compounds using the IEC-6 intestinal epithelial cell line. [Related pubchem assays: 1700 (Primary screen.), 1834 (Confirmation screen.), 1858 (Summary AID.), 1905 (Counterscreen.)]; format: functional
[8] = blockade of melanocortin 4 receptor signaling – cell-based, plate reader, cherry pick, counter-screen for LGR2 antagonist project, dose response (AID 743444); format: functional;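 further: transfected HEK 293 cells stimulated with alpha-MSH peptide; potency of inhibitors of the alpha-MSH evoked signal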
NS3 = NS3 (Hepatitis C virus, UniProt A3EZJ3); experiment: PubChem AID 2173; design: species or system Hepacivirus hominis
Sequence of NS3 (A3EZJ3 whole entry): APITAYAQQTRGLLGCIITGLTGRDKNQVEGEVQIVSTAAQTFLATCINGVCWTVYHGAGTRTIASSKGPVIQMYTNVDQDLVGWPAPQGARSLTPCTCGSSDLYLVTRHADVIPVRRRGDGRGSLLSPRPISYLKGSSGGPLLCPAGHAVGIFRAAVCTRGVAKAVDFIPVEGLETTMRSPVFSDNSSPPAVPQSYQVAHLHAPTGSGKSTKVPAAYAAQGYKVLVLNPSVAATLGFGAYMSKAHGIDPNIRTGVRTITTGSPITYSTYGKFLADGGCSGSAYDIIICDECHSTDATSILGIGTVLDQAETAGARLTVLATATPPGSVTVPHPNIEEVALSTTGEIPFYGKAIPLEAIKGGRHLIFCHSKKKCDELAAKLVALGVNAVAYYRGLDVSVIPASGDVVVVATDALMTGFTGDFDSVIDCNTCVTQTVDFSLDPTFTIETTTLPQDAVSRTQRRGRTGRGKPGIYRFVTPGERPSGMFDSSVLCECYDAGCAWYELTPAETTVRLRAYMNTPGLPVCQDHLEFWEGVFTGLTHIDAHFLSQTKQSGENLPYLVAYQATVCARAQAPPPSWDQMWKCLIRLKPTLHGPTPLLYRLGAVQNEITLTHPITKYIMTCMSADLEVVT

[9] = molecular target: Protein-tyrosine kinase 2-beta (Homo sapiens, UniProt Q14289);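 further: potency of inhibitors of PYK2 kinase phosphorylation of poly-GT substrate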
Sequence of Protein-tyrosine kinase 2-beta (Q14289 whole entry): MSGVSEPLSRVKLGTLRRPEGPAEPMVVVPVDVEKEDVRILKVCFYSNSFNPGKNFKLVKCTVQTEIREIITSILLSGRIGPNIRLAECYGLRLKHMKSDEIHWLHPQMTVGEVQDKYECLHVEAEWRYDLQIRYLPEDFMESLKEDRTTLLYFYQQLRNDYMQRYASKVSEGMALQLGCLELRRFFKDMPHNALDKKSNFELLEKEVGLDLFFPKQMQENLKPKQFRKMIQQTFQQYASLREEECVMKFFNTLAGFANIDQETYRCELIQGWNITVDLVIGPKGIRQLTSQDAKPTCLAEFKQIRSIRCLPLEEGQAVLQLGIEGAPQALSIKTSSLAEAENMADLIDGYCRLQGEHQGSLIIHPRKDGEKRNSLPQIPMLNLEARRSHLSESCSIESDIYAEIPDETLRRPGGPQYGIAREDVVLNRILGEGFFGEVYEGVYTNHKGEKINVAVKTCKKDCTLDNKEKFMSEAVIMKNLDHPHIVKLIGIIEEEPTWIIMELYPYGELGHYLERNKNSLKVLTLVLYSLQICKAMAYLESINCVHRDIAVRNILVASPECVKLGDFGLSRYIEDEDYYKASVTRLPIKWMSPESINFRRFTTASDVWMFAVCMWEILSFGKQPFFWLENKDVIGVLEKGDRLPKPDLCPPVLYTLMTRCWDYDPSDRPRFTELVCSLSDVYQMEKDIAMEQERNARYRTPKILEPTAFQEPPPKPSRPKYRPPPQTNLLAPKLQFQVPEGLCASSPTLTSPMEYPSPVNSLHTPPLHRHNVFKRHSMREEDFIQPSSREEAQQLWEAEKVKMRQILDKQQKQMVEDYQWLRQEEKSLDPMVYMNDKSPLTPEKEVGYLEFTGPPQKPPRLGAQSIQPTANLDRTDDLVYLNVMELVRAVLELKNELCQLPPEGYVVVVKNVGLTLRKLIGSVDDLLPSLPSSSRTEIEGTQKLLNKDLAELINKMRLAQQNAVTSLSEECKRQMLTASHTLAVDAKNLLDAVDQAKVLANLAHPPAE

[10] = antiviral protection against BTV-induced cell death – arbovirus, BSR cells, confirmation (AID 1250); format: functional;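 further: protection from viral cytopathic effect measured as cell viability by ATP luminescence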
[11] = molecular target: Dual specificity tyrosine-phosphorylation-regulated kinase 1A (Rattus norvegicus, UniProt Q63470); format: biochemical, Homo sapiens
[12] = toxicity toward HepG2 liver cells – cell-based, plate reader, cherry-pick, antagonist series, cytotoxicity control, dose response (AID 743416); format: functional
[13] = A549 cell cytotoxicity, dose response, cytotoxicity control, plate reader, cherry-pick, antagonist series (AID 743412); format: functional, cell-based
[14] = molecular target: Aryl hydrocarbon receptor (Homo sapiens, UniProt P35869); experiment: Luminescence-based cell-based high throughput dose response assay for activators of the Aryl Hydrocarbon Receptor (AHR). [Related pubchem assays: 2796 (Primary screen (AHR activators in singlicate)), 2845 (Confirmation screen (AHR activators in triplicate)), 434939 (Counterscreen (PXR activators in triplicate)), 2804 (Summary (AHR activators))]; format: ADME
Sequence of Aryl hydrocarbon receptor (P35869 whole entry): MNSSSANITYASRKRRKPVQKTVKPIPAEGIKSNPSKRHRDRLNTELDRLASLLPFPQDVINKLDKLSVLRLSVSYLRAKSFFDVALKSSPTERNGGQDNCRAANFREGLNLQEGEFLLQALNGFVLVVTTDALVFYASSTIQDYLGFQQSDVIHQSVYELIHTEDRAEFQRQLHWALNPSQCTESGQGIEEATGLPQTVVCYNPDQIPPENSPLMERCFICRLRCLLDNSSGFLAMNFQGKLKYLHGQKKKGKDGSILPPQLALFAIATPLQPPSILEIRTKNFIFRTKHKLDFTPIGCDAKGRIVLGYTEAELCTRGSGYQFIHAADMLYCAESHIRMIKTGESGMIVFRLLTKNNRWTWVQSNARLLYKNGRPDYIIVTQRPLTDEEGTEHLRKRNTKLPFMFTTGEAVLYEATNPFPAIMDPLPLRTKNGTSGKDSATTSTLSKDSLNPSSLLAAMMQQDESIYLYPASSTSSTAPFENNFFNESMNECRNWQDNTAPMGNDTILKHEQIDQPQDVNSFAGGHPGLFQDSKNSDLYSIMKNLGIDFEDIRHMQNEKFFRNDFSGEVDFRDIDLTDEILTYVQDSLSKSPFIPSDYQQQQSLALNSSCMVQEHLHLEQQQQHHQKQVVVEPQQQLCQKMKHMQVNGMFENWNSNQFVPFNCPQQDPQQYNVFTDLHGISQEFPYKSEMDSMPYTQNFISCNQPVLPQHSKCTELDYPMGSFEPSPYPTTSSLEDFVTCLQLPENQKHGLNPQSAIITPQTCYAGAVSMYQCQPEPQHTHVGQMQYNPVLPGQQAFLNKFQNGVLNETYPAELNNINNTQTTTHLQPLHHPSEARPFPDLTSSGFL

[15] = molecular target: T1, Low molecular weight phosphotyrosine protein phosphatase (Homo sapiens, UniProt P24666); format: functional; details: read-out: IC50_Mean
T1 sequence (P24666 whole entry): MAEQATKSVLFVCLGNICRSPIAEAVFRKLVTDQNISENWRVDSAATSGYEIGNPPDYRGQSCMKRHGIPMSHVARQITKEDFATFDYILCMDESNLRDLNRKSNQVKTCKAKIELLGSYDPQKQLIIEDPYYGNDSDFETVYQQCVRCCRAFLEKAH

[16] = molecular target: T2, Heat shock factor protein 1 (Mus musculus, UniProt P38532); experiment: decrease of HSF1-responsive luciferase luminescence – cell-based, NIH3T3, dose retest, confirmation (AID 2382); format: functional;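 further: NIH3T3 fibroblasts with HSF1-driven luciferase reporter stressed by proteasome inhibitor MG132; luminescence from HSF1-driven luciferase expression after 8 hours of MG132 stress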
T2 sequence (P38532 whole entry): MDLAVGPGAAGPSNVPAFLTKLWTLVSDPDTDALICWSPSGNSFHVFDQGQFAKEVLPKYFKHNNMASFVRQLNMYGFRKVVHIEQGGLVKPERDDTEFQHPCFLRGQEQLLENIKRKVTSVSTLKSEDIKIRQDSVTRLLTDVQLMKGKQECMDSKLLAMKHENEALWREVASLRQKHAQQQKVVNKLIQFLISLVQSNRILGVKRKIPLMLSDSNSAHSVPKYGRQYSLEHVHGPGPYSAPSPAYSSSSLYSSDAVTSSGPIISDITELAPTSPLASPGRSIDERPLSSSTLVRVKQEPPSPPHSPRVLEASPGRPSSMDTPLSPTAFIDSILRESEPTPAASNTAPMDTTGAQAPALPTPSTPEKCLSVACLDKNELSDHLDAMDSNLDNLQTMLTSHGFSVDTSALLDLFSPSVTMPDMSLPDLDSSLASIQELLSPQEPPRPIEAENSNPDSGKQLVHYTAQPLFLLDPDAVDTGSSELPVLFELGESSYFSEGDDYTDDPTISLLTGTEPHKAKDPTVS

[17] = molecular target: T1, Low molecular weight phosphotyrosine protein phosphatase; format: functional; details: read-out: IC50_Mean; remark: listed apart in the source
[18] = Luminescence Cell-Based Dose Confirmation HTS to Identify Inhibitors of Polyadenylation.; format: functional
Coagulation factor XII = molecular target: T3, Coagulation factor XII (Homo sapiens, UniProt P00748); format: functional;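 further: activated factor XIIa alpha cleaving a fluorogenic AMC peptide substrate; inhibitor potency from loss of enzyme activity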
T3 sequence (P00748 whole entry): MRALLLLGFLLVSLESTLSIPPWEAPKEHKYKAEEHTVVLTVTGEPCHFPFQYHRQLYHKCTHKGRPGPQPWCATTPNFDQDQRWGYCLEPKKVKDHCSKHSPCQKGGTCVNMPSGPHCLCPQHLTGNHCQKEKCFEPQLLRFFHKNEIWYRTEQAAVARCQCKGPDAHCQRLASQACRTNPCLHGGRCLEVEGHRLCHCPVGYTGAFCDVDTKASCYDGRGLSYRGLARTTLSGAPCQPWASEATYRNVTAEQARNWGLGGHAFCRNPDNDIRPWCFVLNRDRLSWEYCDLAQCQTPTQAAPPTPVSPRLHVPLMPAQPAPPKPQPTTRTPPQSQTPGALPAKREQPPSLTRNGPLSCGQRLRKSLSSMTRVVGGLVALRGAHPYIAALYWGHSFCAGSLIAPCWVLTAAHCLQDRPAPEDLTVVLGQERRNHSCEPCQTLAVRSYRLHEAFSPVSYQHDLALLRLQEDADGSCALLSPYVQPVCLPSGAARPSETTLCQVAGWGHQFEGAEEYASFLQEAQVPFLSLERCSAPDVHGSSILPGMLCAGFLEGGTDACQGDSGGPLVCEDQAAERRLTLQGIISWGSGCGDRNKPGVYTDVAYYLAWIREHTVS

Large T antigen = Large T antigen (Simian virus 40, UniProt P03070); format: functional, Betapolyomavirus macacae;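 further: Confirmatory-stage PubChem screen for compounds that inhibit SV40 T antigen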
Sequence of Large T antigen (P03070 whole entry): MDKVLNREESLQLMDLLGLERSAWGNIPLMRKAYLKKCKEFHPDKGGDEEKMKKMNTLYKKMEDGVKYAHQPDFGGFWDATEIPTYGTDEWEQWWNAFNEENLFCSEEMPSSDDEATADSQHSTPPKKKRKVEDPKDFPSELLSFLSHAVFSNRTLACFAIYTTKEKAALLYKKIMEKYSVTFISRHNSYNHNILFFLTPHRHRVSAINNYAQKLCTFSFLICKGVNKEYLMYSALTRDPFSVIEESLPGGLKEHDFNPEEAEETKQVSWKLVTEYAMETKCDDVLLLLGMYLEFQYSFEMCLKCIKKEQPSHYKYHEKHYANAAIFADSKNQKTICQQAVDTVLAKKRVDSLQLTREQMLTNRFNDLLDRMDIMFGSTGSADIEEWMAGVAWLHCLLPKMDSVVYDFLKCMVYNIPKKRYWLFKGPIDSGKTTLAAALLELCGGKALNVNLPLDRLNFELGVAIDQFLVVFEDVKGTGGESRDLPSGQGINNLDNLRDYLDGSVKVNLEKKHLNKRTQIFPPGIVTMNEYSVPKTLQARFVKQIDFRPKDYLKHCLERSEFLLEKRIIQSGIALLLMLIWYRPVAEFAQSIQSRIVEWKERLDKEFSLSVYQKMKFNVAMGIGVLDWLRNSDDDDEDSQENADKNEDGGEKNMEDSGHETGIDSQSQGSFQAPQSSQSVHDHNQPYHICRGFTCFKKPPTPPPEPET

O=C(Nc1cccc(O)c1)c1cc(-c2ccc3c(c2)OCO3)on1
EC50 [1]: 1.71 µM (active) | AC50 [2]: 6.57 µM (active) | EC50 [3]: > 120 µM (not active) | EC50 [4]: 0.349 µM (active) | AC50 [5]: 4.08 µM (active) | EC50 [6]: 5.97 µM (active) | IC50 [7]: > 39.8 µM (not active) | AC50 [8]: 5.8 µM (active)

CC(Oc1ccccc1)C(=O)Nc1oc(-c2ccco2)c(-c2ccco2)c1C#N (centres undefined)
IC50 (NS3): 16.7 µM (not active)

c1ccc(-c2nccc(-c3ccc(-n4cnc5ccccc54)cc3)n2)cc1
IC50 [9]: 2.64 µM (active)

N#Cc1c(C(F)(F)F)cc(-c2cccc(Cl)c2)nc1O
IC50 [10]: 42.9 µM (active) | AC50 [11]: 7.04 µM (active)

CN1CCN(c2ccc(NC(=O)c3sc4ccccc4c3Cl)cc2)CC1
AC50 [12]: 25.5 µM (active) | AC50 [13]: 22 µM (active) | EC50 [14]: > 0.377 µM (active) | AC50 [5]: 2.49 µM (active) | AC50 [8]: 7.85 µM (active)

CCCCOc1ccc(C2C(C(=O)c3ccc(C)o3)=C(O)C(=O)N2Cc2ccco2)cc1 (centres undefined)
IC50 [15]: > 80 µM (inactive) | IC50 (NS3): 3.26 µM (active) | EC50 [16]: 46.6 µM (active) | IC50 [17]: 54.5 µM (inactive)

O=C(O)CN1C(=O)/C(=C/c2ccc(N3CCCCC3)o2)SC1=S
EC50 [18]: 10.6 µM (active) | IC50 (Coagulation factor XII): > 50 µM (inactive) | IC50 (Large T antigen): 31.7 µM (active)
